# According to article PMC5593639, “NSC30049 inhibits Chk1 pathway in 5-FU-resistant CRC bulk and stem cell populations” (Oncotarget, 2017):
# What was measured:
# [1] = test system: γH2AX(S139P)-foci in HCoEpiC cells; assay: γH2AX(S139P)-foci IHC staining, HCoEpiC; assay type: cell-based, human; settings: NSC49L alone or in combination with 5-FU, 24 h
# [2] = test system: Chk1 phosphorylation in CA2 cells; assay: Western blot of total and phosphorylated Chk1, CA2; assay type: cell-based, human; settings: NSC49L alone, 24 h
# Method: The levels of various proteins were determined by Western blot analysis with our previously described procedure. The antibodies for phospho-Chk1(Ser317), phospho-Chk1(Ser317), phospho-Chk1(Ser319), phospho-Chk1(Ser345), Chk1, and GAPDH were purchased from Cell Signaling Technology (Danvers, MA, USA).
# LS174T cells = assay: Cell survival (MTT assay), LS174T; assay type: cell-based; settings: Homo sapiens, drug alone, 48 h
# Method: (§1) The survival of cells was determined by MTT (3-(4,5-Dimethylthiazol-2yl-)-2,5-diphenyl tetrazolium bromide) assay (ATCC, Manassas, VA, USA). In principle, the viable cell number is directly proportional to the purple formazan color of the reduced MTT dye, which can be quantitatively measured by spectrophotometry. Briefly, 1,500 cells were plated in quadruplets in 96-well flat-bottom tissue culture plates. After treatment with compounds for certain periods as described in respective figure legends, 10 μl of MTT reagent was added to each well and incubated at 37°C for 4 h to allow the formation of purple color crystals of formazan. In total, 100 μl of detergent solution was added to each well, and the reaction mixture was incubated in dark for 2–4 h at room temperature. The developed color density was then measured spectrophotometrically at 570 nm using the POLARstar Omega micro-plate reader (BMG Labtech, Inc., Cary, NC, USA).
# HT29 cells = assay: Cell cycle profile by FACS; assay type: cell-based, human; settings: 2 mM HU 24 h
# Method: For determining the cell cycle profile, cells were plated in 60 mm tissue culture dishes and grown until 60% confluence. […] After treatment, cells were harvested at different time intervals, washed with ice-cold PBS and processed for FACS analysis as described previously. The ranges for G0/G1, S, and G2/M phase arrested and sub-G1 apoptotic cells were established on the basis of the corresponding DNA content of the histograms. At minimum, 10,000 cells were counted from each sample.
# [3] = test system: human-derived CRC stem cell tumors; assay: Patient-derived tumor xenograft (PDTX) of CRC stem cell tumors; assay type: in vivo, female SCID mice; settings: 50 mg/kg body weight NSC49L every day, 30 days
# Method: With the pharmacokinetics analysis and MTD data in hand, we determined the efficacy of NSC49L and 5-FU alone and in combination for the growth of human-derived CRC stem cell tumors in vivo. CRC stem cells were isolated and characterized from the freshly resected human CRC tumor. One thousands of these CRC stem cells were injected subcutaneously into the right flank of the four 5-week old female SCID mice. After 20 days the first generation tumors (F0) of approximately 2,000 mm^3 in size were harvested. They were divided into four equal pieces and implanted under the skin of the female SCID mice for the growth of second generation tumors (F1) for testing the drug efficacy studies. We divided the F1 tumor bearing mice into four groups and treated them every day subcutaneously with drugs as follows: i) PBS control, (ii) 50 mg/kg body weight NSC49L, (iii) 20 mg/kg body weight 5-FU, and iv) 50 and 20 mg/kg body weight NSC49L and 5-FU, respectively, for 30 days. The treatment with drugs began after 10 days of tumor growth. The body weight and tumor volumes were recorded twice a weak. The experiment was terminated on the 32nd day.
# LoVo cells = assay: Cell survival (MTT assay), LoVo; assay type: cell-based; settings: Homo sapiens, drug alone, 48 h
# Method: as §1
# [4] = test system: ALDH1, KLF4, Nanog, Oct4, Sox2, c-Myc mRNA in CA2 cells; assay: Stem cell marker and self-renewal gene mRNA levels by qRT-PCR; assay type: cell-based, human; settings: 72 h
# Method: Total RNA was isolated from control and treated cells with RNAzol reagent (Invitogen, Carlsbad, CA, USA). The expression of mRNA levels of stemness genes was determined by qRT-PCR using Bio-Rad CFX96 Real Time System C1000 Thermal Cycler. The primers used for amplification of mRNA levels of genes were from Celprogen, Inc., as shown here with their Gene Bank accession and catalog numbers: ALDHA1 (NM_000689, Cat. No. CepALDHA1-02), Klf4 (NM_004235, Cat No. CepKlf4-02), Nanog (NM_024865, Cat. No. CepNanog-02), Oct4 (NM_002701, Cat No. CepOct4-02), Sox2 (NM_003106, Cat. No. CepSox2-02), c-Myc (NM_002467, Cat. No. Cepc-Myc-02) and GAPDH (NM_002046, Cat. No. Cep-GAPDH-02).
# [5] = Pharmacokinetic analysis in CD1 mice; assay type: in vivo, male CD1 mice; settings: 20 mg/kg body weight, IP, plasma
# Method: Pharmacokinetic analysis of NSC30049 in CD1 mice was determined by Pharmaron, Inc. (Louisville, KY, USA). Mice were injected intraperitoneally (IP) with NSC49L (20 mg/kg body weight) and approximately 0.04 ml blood was collected at 0, 5, 15 and 30 min, 1, 2, 4, 8 and 24 h time point. Blood of each sample was transferred into plastic micro-centrifuge tubes containing 2 μl of Heparin (1,000 IU). Samples were stored in a freezer at −75 ± 15°C prior to analysis. Concentrations of NSC49L in the plasma samples was analyzed using a LC-MS/MS method. WinNonlin® (Phoenix®, version 6.1) software was used for pharmacokinetic calculations. The following pharmacokinetic parameters were calculated from the plasma concentration versus time data: T1/2, Cmax, AUClast, AUCinf, AUCextra%, Number of Points for Regression. The pharmacokinetic data is described using mean ± standard deviation (SD) and n = 3.
# [6] = HU withdrawn, then 20 μM NSC49L 8 h
# [7] = then 20 μM NSC49L additional 8 h in presence of HU
structure (smiles),measurement,setting,value
ClC/C=C/C[N+]12CN3CN(CN(C3)C1)C2 [NSC49L],replication stress-mediated DNA damage (γH2AX(S139P)-foci),[1],no effect
same,Chk1(S317P) and Chk1(S296P) levels,[2],very little change
same,Chk1(S345P) level,[2],increase in a dose-dependent manner
same,IC50,LS174T cells,4.6 ± 0.8 µM
same,Cell cycle distribution G2/M,HT29 cells; [6],26.1%
same,Cell cycle distribution S (S-phase arrest),HT29 cells; [6],50.6%
same,Cell cycle distribution S (S-phase arrest),HT29 cells; [7],39.7%
same,Entry of G2/M-phase,HT29 cells; [7],complete blockage to the entry of G2/M-phase
same,Growth of CRC stem cell tumors,[3],significant growth inhibition
same,IC50,LoVo cells,4.2 ± 0.1 µM
same,"mRNA levels of ALDH1, KLF4 and Nanog",[4]; NSC49L combined with 5-FU,further decreased
same,"mRNA levels of ALDH1, KLF4, Nanog, Oct4, Sox2 and c-Myc","[4]; drug alone, normalized with GAPDH",decreased
same,AUC_%Extrap_obs,[5],0.187 ± 293%
same,AUC(0-inf),"[5]; male, CD1, mouse",1310 ± 89 ng·h/mL
same,AUC(0-t),"[5]; male, CD1, mouse",1310 ± 86 ng·h/mL
same,Cmax,"[5]; male, CD1, mouse",5530 ng/mL
same,Tmax,"[5]; male, CD1, mouse",4.98 min
same,half-life,"[5]; male, CD1, mouse, n = 3",14 ± 5.88 min
same,AUC,"[5]; male, CD1, mouse, read-out: AUC (bioavailability)",1310 ± 86 ng·h/mL
